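Briefly, cells in 96-well plates were exposed to five compound concentrations for 48 h, and endpoints were estimated by linear interpolation. Here, GI50 denotes the concentration required for 50% inhibition of growth. TGI is the concentration that stops growth completely.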
Legend:
Experiment in all cases: growth of human tumour cells (NCI), 48 h
786-0 renal = tested on: 786-0 renal
A498 renal = tested on: A498 renal
A549 NSCLC = tested on: A549 NSCLC
ACHN renal = tested on: ACHN renal
BT-549 breast = tested on: BT-549 breast
CAKI-1 renal = tested on: CAKI-1 renal
CCRF-CEM leukemia = tested on: CCRF-CEM leukemia
COLO 205 colon = tested on: COLO 205 colon
DU-145 prostate = tested on: DU-145 prostate
EKVX NSCLC = tested on: EKVX NSCLC
HCC-2998 colon = tested on: HCC-2998 colon
HCT-116 colon = tested on: HCT-116 colon
HCT-15 colon = tested on: HCT-15 colon
HL-60(TB) leukemia = tested on: HL-60(TB) leukemia
HOP-62 NSCLC = tested on: HOP-62 NSCLC
HOP-92 NSCLC = tested on: HOP-92 NSCLC
HS 578T breast = tested on: HS 578T breast
HT29 colon = tested on: HT29 colon
IGROV1 ovarian = tested on: IGROV1 ovarian
K-562 leukemia = tested on: K-562 leukemia
KM12 colon = tested on: KM12 colon
LOX IMVI melanoma = tested on: LOX IMVI melanoma
M14 melanoma = tested on: M14 melanoma
MALME-3M melanoma = tested on: MALME-3M melanoma
MCF7 breast = tested on: MCF7 breast
MDA-MB-231 breast = tested on: MDA-MB-231 breast
MDA-MB-435 = tested on: MDA-MB-435
MDA-MB-468 breast = tested on: MDA-MB-468 breast
MOLT-4 leukemia = tested on: MOLT-4 leukemia
NCI-H226 lung = tested on: NCI-H226 lung
NCI-H23 lung = tested on: NCI-H23 lung
NCI-H460 lung = tested on: NCI-H460 lung
NCI-H522 lung = tested on: NCI-H522 lung
NCI/ADR-RES ovarian = tested on: NCI/ADR-RES ovarian
OVCAR-3 ovarian = tested on: OVCAR-3 ovarian
OVCAR-4 ovarian = tested on: OVCAR-4 ovarian
OVCAR-5 ovarian = tested on: OVCAR-5 ovarian
OVCAR-8 ovarian = tested on: OVCAR-8 ovarian
PC-3 prostate = tested on: PC-3 prostate
RPMI-8226 leukemia = tested on: RPMI-8226 leukemia
RXF 393 renal = tested on: RXF 393 renal
SF-268 CNS = tested on: SF-268 CNS
SF-295 CNS = tested on: SF-295 CNS
SF-539 CNS = tested on: SF-539 CNS
SK-MEL-2 melanoma = tested on: SK-MEL-2 melanoma
SK-MEL-28 melanoma = tested on: SK-MEL-28 melanoma
SK-MEL-5 melanoma = tested on: SK-MEL-5 melanoma
SK-OV-3 ovarian = tested on: SK-OV-3 ovarian
SN12C renal = tested on: SN12C renal
SNB-19 CNS = tested on: SNB-19 CNS
SNB-75 CNS = tested on: SNB-75 CNS
SR leukemia = tested on: SR leukemia
SW-620 colon = tested on: SW-620 colon
T-47D breast = tested on: T-47D breast
TK-10 renal = tested on: TK-10 renal
U251 CNS = tested on: U251 CNS
UACC-257 melanoma = tested on: UACC-257 melanoma
UACC-62 melanoma = tested on: UACC-62 melanoma
UO-31 renal = tested on: UO-31 renal

## COc1ccc2[nH]cc(/C=N/Nc3ccc(Br)cn3)c2c1
786-0 renal
  GI50: 12.6 µM
  TGI: 40.1 µM
A498 renal
  GI50: 20.5 µM
  TGI: 61.7 µM
A549 NSCLC
  GI50: 8.12 µM
  TGI: > 100 µM
ACHN renal
  GI50: 7.76 µM
  TGI: > 100 µM
BT-549 breast
  GI50: 0.176 µM
  TGI: > 100 µM
CAKI-1 renal
  GI50: 3.01 µM
  TGI: > 100 µM
CCRF-CEM leukemia
  GI50: 0.466 µM
  TGI: 41 µM
COLO 205 colon
  GI50: 15.7 µM
  TGI: 67.9 µM
DU-145 prostate
  GI50: 13.3 µM
  TGI: > 100 µM
EKVX NSCLC
  GI50: 2.71 µM
  TGI: > 100 µM
HCC-2998 colon
  GI50: 5.74 µM
  TGI: 32.5 µM
HCT-116 colon
  GI50: 5.97 µM
  TGI: > 100 µM
HCT-15 colon
  GI50: 4.46 µM
  TGI: > 100 µM
HL-60(TB) leukemia
  GI50: 2.54 µM
  TGI: 28.3 µM
HOP-62 NSCLC
  GI50: 10.1 µM
  TGI: > 100 µM
HOP-92 NSCLC
  GI50: 2.22 µM
  TGI: 19.3 µM
HS 578T breast
  GI50: 6.91 µM
  TGI: 68.2 µM
HT29 colon
  GI50: 8.77 µM
  TGI: > 100 µM
IGROV1 ovarian
  GI50: 0.634 µM
  TGI: 6.41 µM
K-562 leukemia
  GI50: 2.94 µM
  TGI: > 100 µM
KM12 colon
  GI50: 2.71 µM
  TGI: 24.7 µM
LOX IMVI melanoma
  GI50: 3.4 µM
  TGI: 24.7 µM
M14 melanoma
  GI50: 7.27 µM
  TGI: > 100 µM
MALME-3M melanoma
  GI50: 82.7 µM
  TGI: > 100 µM
MCF7 breast
  GI50: 1.7 µM
  TGI: > 100 µM
MDA-MB-231 breast
  GI50: 1.93 µM
  TGI: 8.71 µM
MDA-MB-435
  GI50: 6.73 µM
  TGI: > 100 µM
MDA-MB-468 breast
  GI50: 1.74 µM
  TGI: 6.4 µM
MOLT-4 leukemia
  GI50: 2.85 µM
  TGI: > 100 µM
NCI-H226 lung
  GI50: 2.02 µM
  TGI: > 100 µM
NCI-H23 lung
  GI50: 11.6 µM
  TGI: > 100 µM
NCI-H460 lung
  GI50: 7.68 µM
  TGI: > 100 µM
NCI-H522 lung
  GI50: 3.11 µM
  TGI: 33.5 µM
NCI/ADR-RES ovarian
  GI50: 5.33 µM
  TGI: > 100 µM
OVCAR-3 ovarian
  GI50: 11.6 µM
  TGI: > 100 µM
OVCAR-4 ovarian
  GI50: 43.2 µM
  TGI: > 100 µM
OVCAR-5 ovarian
  GI50: 4.17 µM
  TGI: 79.4 µM
OVCAR-8 ovarian
  GI50: 20.8 µM
  TGI: > 100 µM
PC-3 prostate
  GI50: 2.55 µM
  TGI: > 100 µM
RPMI-8226 leukemia
  GI50: 1.62 µM
  TGI: 9.07 µM
RXF 393 renal
  GI50: 2.09 µM
  TGI: 31.5 µM
SF-268 CNS
  GI50: 5.23 µM
  TGI: > 100 µM
SF-295 CNS
  GI50: 9.13 µM
  TGI: 48.4 µM
SF-539 CNS
  GI50: 2.65 µM
  TGI: 37.3 µM
SK-MEL-2 melanoma
  GI50: 21.4 µM
  TGI: 81.8 µM
SK-MEL-28 melanoma
  GI50: 29.1 µM
  TGI: > 100 µM
SK-MEL-5 melanoma
  GI50: 7.41 µM
  TGI: 25.3 µM
SK-OV-3 ovarian
  GI50: 6.19 µM
  TGI: > 100 µM
SN12C renal
  GI50: 2.38 µM
  TGI: 65.9 µM
SNB-19 CNS
  GI50: 20.7 µM
  TGI: > 100 µM
SNB-75 CNS
  GI50: 0.286 µM
  TGI: 55.1 µM
SR leukemia
  GI50: 4.8 µM
  TGI: 58.3 µM
SW-620 colon
  GI50: 15.7 µM
  TGI: > 100 µM
T-47D breast
  GI50: 3.22 µM
  TGI: > 100 µM
TK-10 renal
  GI50: 18.6 µM
  TGI: > 100 µM
U251 CNS
  GI50: 15.9 µM
  TGI: > 100 µM
UACC-257 melanoma
  GI50: 25.1 µM
  TGI: > 100 µM
UACC-62 melanoma
  GI50: 8.45 µM
  TGI: > 100 µM
UO-31 renal
  GI50: 1.09 µM
  TGI: > 100 µM

## Cn1cc(-c2cc(N)n3nc(-c4c[nH]c5ccccc45)cc3n2)c2cc(Cl)ccc21
786-0 renal
  GI50: 1.6 µM
  TGI: 3.2 µM
A498 renal
  GI50: 10.1 µM
  TGI: 22 µM
A549 NSCLC
  GI50: 3.15 µM
  TGI: 13 µM
ACHN renal
  GI50: 2.98 µM
  TGI: 10.6 µM
BT-549 breast
  GI50: 16.9 µM
  TGI: 31.9 µM
CAKI-1 renal
  GI50: 2.96 µM
  TGI: 12.4 µM
CCRF-CEM leukemia
  GI50: 3.22 µM
  TGI: > 100 µM
COLO 205 colon
  GI50: 2.17 µM
  TGI: 4.26 µM
DU-145 prostate
  GI50: 5.69 µM
  TGI: 22.5 µM
EKVX NSCLC
  GI50: 2.8 µM
  TGI: 12.5 µM
HCC-2998 colon
  GI50: 1.8 µM
  TGI: 3.41 µM
HCT-116 colon
  GI50: 1.84 µM
  TGI: 3.5 µM
HCT-15 colon
  GI50: 1.72 µM
  TGI: 3.29 µM
HL-60(TB) leukemia
  GI50: 2.91 µM
  TGI: 13.7 µM
HOP-62 NSCLC
  GI50: 2.84 µM
  TGI: 10.8 µM
HOP-92 NSCLC
  GI50: 2.73 µM
  TGI: 9.96 µM
HS 578T breast
  GI50: 4.06 µM
  TGI: 24.3 µM
HT29 colon
  GI50: 1.76 µM
  TGI: 3.43 µM
IGROV1 ovarian
  GI50: 3.61 µM
  TGI: 14.6 µM
K-562 leukemia
  GI50: 2.27 µM
  TGI: 5.68 µM
KM12 colon
  GI50: 2.55 µM
  TGI: 6.63 µM
LOX IMVI melanoma
  GI50: 1.71 µM
  TGI: 3.08 µM
M14 melanoma
  GI50: 2.15 µM
  TGI: 4.93 µM
MALME-3M melanoma
  GI50: 3.93 µM
  TGI: 14.3 µM
MCF7 breast
  GI50: 1.65 µM
  TGI: 3.58 µM
MDA-MB-231 breast
  GI50: 1.9 µM
  TGI: 3.61 µM
MDA-MB-435
  GI50: 3.69 µM
  TGI: 13.4 µM
MDA-MB-468 breast
  GI50: 1.89 µM
  TGI: 4.59 µM
MOLT-4 leukemia
  GI50: 1.87 µM
  TGI: 5.24 µM
NCI-H226 lung
  GI50: 14.1 µM
  TGI: 47.1 µM
NCI-H23 lung
  GI50: 2.45 µM
  TGI: 7.38 µM
NCI-H460 lung
  GI50: 2.35 µM
  TGI: 5.45 µM
NCI-H522 lung
  GI50: 1.64 µM
  TGI: 3.43 µM
NCI/ADR-RES ovarian
  GI50: 2.85 µM
  TGI: 9.09 µM
OVCAR-3 ovarian
  GI50: 4.75 µM
  TGI: 29.6 µM
OVCAR-4 ovarian
  GI50: 7.3 µM
  TGI: 29.7 µM
OVCAR-5 ovarian
  GI50: 2.09 µM
  TGI: 4.81 µM
OVCAR-8 ovarian
  GI50: 3.53 µM
  TGI: 14.2 µM
PC-3 prostate
  GI50: 3.15 µM
  TGI: 11.4 µM
RPMI-8226 leukemia
  GI50: 3.42 µM
  TGI: 29 µM
RXF 393 renal
  GI50: 2.47 µM
  TGI: 8.46 µM
SF-268 CNS
  GI50: 5.21 µM
  TGI: 26.6 µM
SF-295 CNS
  GI50: 1.87 µM
  TGI: 3.79 µM
SF-539 CNS
  GI50: 1.81 µM
  TGI: 3.66 µM
SK-MEL-2 melanoma
  GI50: 6.75 µM
  TGI: 24 µM
SK-MEL-28 melanoma
  GI50: 7.16 µM
  TGI: 19.9 µM
SK-MEL-5 melanoma
  GI50: 7.16 µM
  TGI: 19.7 µM
SK-OV-3 ovarian
  GI50: 15.9 µM
  TGI: 43 µM
SN12C renal
  GI50: 5.3 µM
  TGI: 18.8 µM
SNB-19 CNS
  GI50: 4.32 µM
  TGI: 16.3 µM
SNB-75 CNS
  GI50: 4 µM
  TGI: 18.3 µM
SR leukemia
  GI50: 0.857 µM
  TGI: > 100 µM
SW-620 colon
  GI50: 2 µM
  TGI: 3.92 µM
T-47D breast
  GI50: 4.44 µM
  TGI: 20 µM
TK-10 renal
  GI50: 4.34 µM
  TGI: 15.7 µM
U251 CNS
  GI50: 2.01 µM
  TGI: 4.44 µM
UACC-257 melanoma
  GI50: 10.6 µM
  TGI: 23.5 µM
UACC-62 melanoma
  GI50: 5.36 µM
  TGI: 18.7 µM
UO-31 renal
  GI50: 4.22 µM
  TGI: 16.9 µM

— PubChem BioAssay (NCI)
